Reference: patent US20120202801A1, “METHODS FOR TREATING BREAST CANCER” (priority 2009, published 2012)

System: hypoxia-inducible endogenous VEGF expression
Test: Hypoxia-inducible endogenous VEGF expression ELISA in HeLa cells, dose-response (EC50, Table 3)
Conditions: Homo sapiens, read-out: ELISA EC50 μM

Structure (SMILES)	EC50 [µM]
O=C(Oc1ccc(Cl)cc1)N1CCc2c([nH]c3ccc(Cl)cc23)C1c1ccc(OCCCCCCN2CCCC2)cc1 (centres unmarked) [Compound 783]	< 0.008
CN(C)CCCOc1ccc(C2c3[nH]c4ccc(Cl)cc4c3CCN2C(=O)Oc2ccccc2)cc1 (centres unmarked) [Compound 493]	0.04 to 0.2
COCCN(CCCOc1ccc(C2c3[nH]c4ccc(Cl)cc4c3CCN2C(=O)Oc2ccc(F)cc2)cc1)CCOC (centres unmarked) [Compound 990]	< 0.008
O=C(Oc1ccc(F)cc1)N1CCc2c([nH]c3ccc(Cl)cc23)C1c1ccc(OCCCCN2CCCCC2)cc1 (centres unmarked) [Compound 739]	< 0.008
O=C(Oc1ccc(Cl)cc1)N1CCc2c([nH]c3ccc(Cl)cc23)C1c1ccc(OCCCCCCN2CCCCC2)cc1 (centres unmarked) [Compound 787]	< 0.008
O=C(Oc1ccc(Cl)cc1)N1CCc2c([nH]c3ccc(Cl)cc23)C1c1ccc(OCCCCCCNCCO)cc1 (centres unmarked) [Compound 782]	< 0.008
O=C(Oc1ccc(F)cc1)N1CCc2c([nH]c3ccc(Cl)cc23)C1c1ccc(OCCCCCCN2CCCCC2)cc1 (centres unmarked) [Compound 777]	< 0.008
CN1CCN(CCCOc2ccc(C3c4[nH]c5ccc(Cl)cc5c4CCN3C(=O)Oc3ccc(F)cc3)cc2)CC1 (centres unmarked) [Compound 993]	< 0.008
O=C(Oc1ccc(F)cc1)N1CCc2c([nH]c3ccc(Cl)cc23)C1c1ccc(OCCCCCCN2CCOCC2)cc1 (centres unmarked) [Compound 776]	< 0.008
O=C(Oc1ccc(Cl)cc1)N1CCc2c([nH]c3ccc(Cl)cc23)C1c1ccc(OCC(O)CN2CCSCC2)cc1 (centres unmarked) [Compound 923]	< 0.008
O=C(Oc1ccc(Cl)cc1)N1CCc2c([nH]c3ccc(Cl)cc23)C1c1ccc(OCCCN2CCSCC2)cc1 (centres unmarked) [Compound 933]	< 0.008
CN1CCN(CCCOc2ccc(C3c4[nH]c5ccc(Cl)cc5c4CCN3C(=O)Oc3ccc(Cl)cc3)cc2)CC1 (centres unmarked) [Compound 961]	0.008 to 0.04
O=C(Oc1ccc(F)cc1)N1CCc2c([nH]c3ccc(Cl)cc23)C1c1ccc(OCCCCNCCCn2ccnc2)cc1 (centres unmarked) [Compound 741]	0.04 to 0.2
CN(C)CCN(C)CCCOc1ccc([C@H]2c3[nH]c4ccc(Cl)cc4c3CCN2C(=O)Oc2ccc(Cl)cc2)cc1 [Compound 1611]	< 0.008
CN1CCN(CC(O)COc2ccc(C3c4[nH]c5ccc(Cl)cc5c4CCN3C(=O)Oc3ccc(Cl)cc3)cc2)CC1 (centres unmarked) [Compound 970]	0.008 to 0.04
CN1CCCC(COc2ccc(C3c4[nH]c5ccc(Cl)cc5c4CCN3C(=O)Oc3ccc(F)cc3)cc2)C1 (centres unmarked) [Compound 932]	< 0.008
CC(C)NCC(O)COc1ccc(C2c3[nH]c4ccc(Cl)cc4c3CCN2C(=O)Oc2ccc(Cl)cc2)cc1 (centres unmarked) [Compound 977]	0.04 to 0.2
CN1CCCC(COc2ccc(C3c4[nH]c5ccc(Cl)cc5c4CCN3C(=O)Oc3ccccc3Cl)cc2)C1 (centres unmarked) [Compound 976]	0.04 to 0.2
COCCCNCCCCCCOc1ccc(C2c3[nH]c4ccc(Cl)cc4c3CCN2C(=O)Oc2ccc(F)cc2)cc1 (centres unmarked) [Compound 775]	< 0.008
COCCN(C)CCCOc1ccc(C2c3[nH]c4ccc(Cl)cc4c3CCN2C(=O)Oc2ccc(Cl)cc2)cc1 (centres unmarked) [Compound 908]	< 0.008
CN(C)CCCOc1ccc(C2c3[nH]c4ccc(Cl)cc4c3CCN2C(=O)Oc2ccc(Cl)cc2)cc1 (centres unmarked) [Compound 479]	0.04 to 0.2
O=C(Oc1ccc(F)cc1)N1CCc2c([nH]c3ccc(Cl)cc23)C1c1ccc(OCCCCN2CCCC2)cc1 (centres unmarked) [Compound 736]	< 0.008
O=C(Oc1ccc(Cl)cc1)N1CCc2c([nH]c3ccc(Cl)cc23)C1c1ccc(OCC(O)CN2CCN(CCO)CC2)cc1 (centres unmarked) [Compound 960]	0.008 to 0.04

Structure (SMILES)	EC50 [µM]
O=C(Oc1ccc(F)cc1)N1CCc2c([nH]c3ccc(Cl)cc23)C1c1ccc(OCCCN2CCOCC2)cc1 (centres unmarked) [Compound 989]	< 0.008
CN1CCN(CCCCCCOc2ccc(C3c4[nH]c5ccc(Cl)cc5c4CCN3C(=O)Oc3ccc(Cl)cc3)cc2)CC1 (centres unmarked) [Compound 788]	0.008 to 0.04
CCN(CC)CC(O)COc1ccc(C2c3[nH]c4ccc(Cl)cc4c3CCN2C(=O)Oc2ccc(Cl)cc2)cc1 (centres unmarked) [Compound 938]	< 0.008
O=C(Oc1ccc(F)cc1)N1CCc2c([nH]c3ccc(Cl)cc23)C1c1ccc(OCCCCCCNCCO)cc1 (centres unmarked) [Compound 772]	< 0.008
CC(=O)N1CCN(CC(O)COc2ccc(C3c4[nH]c5ccc(Cl)cc5c4CCN3C(=O)Oc3ccc(F)cc3)cc2)CC1 (centres unmarked) [Compound 637]	< 0.008
O=C(Oc1ccc(Cl)cc1)N1CCc2c([nH]c3ccc(Cl)cc23)C1c1ccc(OCCCN2CCCCC2)cc1 (centres unmarked) [Compound 433]	< 0.008
CC(C)NCCCCCCOc1ccc(C2c3[nH]c4ccc(Cl)cc4c3CCN2C(=O)Oc2ccc(Cl)cc2)cc1 (centres unmarked) [Compound 784]	< 0.008
O=C1NC2CSC(CCCCC(=O)OCCOc3ccc(C4c5[nH]c6ccc(Cl)cc6c5CCN4C(=O)Oc4ccc(Cl)cc4)cc3)C2N1 (centres unmarked) [Compound 544]	< 0.008
CCN(CC)CCCOc1ccc(C2c3[nH]c4ccc(Cl)cc4c3CCN2C(=O)Oc2ccc(Cl)cc2)cc1 (centres unmarked) [Compound 946]	0.008 to 0.04
O=C(Oc1ccc(Cl)cc1)N1CCc2c([nH]c3ccc(Cl)cc23)C1c1ccc(OCCCCN2CCOCC2)cc1 (centres unmarked) [Compound 702]	0.008 to 0.04
COCCCNCCCCOc1ccc(C2c3[nH]c4ccc(Cl)cc4c3CCN2C(=O)Oc2ccc(F)cc2)cc1 (centres unmarked) [Compound 737]	0.008 to 0.04
CN1CCCC(COc2ccc(C3c4[nH]c5ccc(Cl)cc5c4CCN3C(=O)Oc3ccccc3)cc2)C1 (centres unmarked) [Compound 952]	0.008 to 0.04
O=C(Oc1ccc(Cl)cc1)N1CCc2c([nH]c3ccc(Cl)cc23)C1c1ccc(OCCCN2CCOCC2)cc1 (centres unmarked) [Compound 894]	< 0.008
CN1CCN(CCCCCCOc2ccc(C3c4[nH]c5ccc(Cl)cc5c4CCN3C(=O)Oc3ccc(F)cc3)cc2)CC1 (centres unmarked) [Compound 778]	< 0.008
O=C(Oc1ccc(F)cc1)N1CCc2c([nH]c3ccc(Cl)cc23)C1c1ccc(OCCCN2CCSCC2)cc1 (centres unmarked) [Compound 991]	0.04 to 0.2
O=C(Oc1ccc(F)cc1)N1CCc2c([nH]c3ccc(Cl)cc23)C1c1ccc(OCCCCN2CCOCC2)cc1 (centres unmarked) [Compound 738]	< 0.008
O=C(Oc1ccc(Cl)cc1)N1CCc2c([nH]c3ccc(Cl)cc23)C1c1ccc(OCCCN2CCN(CCO)CC2)cc1 (centres unmarked) [Compound 942]	0.008 to 0.04
COCCN(CCOC)CC(O)COc1ccc(C2c3[nH]c4ccc(Cl)cc4c3CCN2C(=O)Oc2ccc(F)cc2)cc1 (centres unmarked) [Compound 913]	< 0.008
COc1ccc(C2c3[nH]c4ccc(Cl)cc4c3CCN2C(=O)Oc2ccc(Cl)cc2)cc1 (centres unmarked) [Compound #10]	< 0.008
CN1CCCC(COc2ccc(C3c4[nH]c5ccc(Cl)cc5c4CCN3C(=O)Oc3ccc(Cl)cc3)cc2)C1 (centres unmarked) [Compound 966]	0.008 to 0.04
O=C(Oc1ccc(Cl)cc1)N1CCc2c([nH]c3ccc(Cl)cc23)C1c1ccc(OCCCCCCN2CCOCC2)cc1 (centres unmarked) [Compound 786]	< 0.008
COc1ccc(OC(=O)N2CCc3c([nH]c4ccc(Cl)cc34)C2c2ccc(OCC3CCCN(C)C3)cc2)cc1 (centres unmarked) [Compound 981]	0.04 to 0.2
CC(C)NCCCOc1ccc(C2c3[nH]c4ccc(Cl)cc4c3CCN2C(=O)Oc2ccc(Cl)cc2)cc1 (centres unmarked) [Compound 953]	0.008 to 0.04

Structure (SMILES)	EC50 [µM]
COCCN(C)CC(O)COc1ccc(C2c3[nH]c4ccc(Cl)cc4c3CCN2C(=O)Oc2ccc(F)cc2)cc1 (centres unmarked) [Compound 936]	< 0.008
CN(C)CC(=O)Nc1ccc(C2c3[nH]c4ccc(Cl)cc4c3CCN2C(=O)Oc2ccc(Cl)cc2)cc1 (centres unmarked) [Compound 491]	0.04 to 0.2
COCCN(C)CCCOc1ccc(C2c3[nH]c4ccc(Cl)cc4c3CCN2C(=O)Oc2ccc(F)cc2)cc1 (centres unmarked) [Compound 992]	0.04 to 0.2
Cc1ccc(OC(=O)N2CCc3c([nH]c4ccc(Cl)cc34)C2c2ccc(OCCCN(C)C)cc2)cc1 (centres unmarked) [Compound 502]	0.04 to 0.2
COc1ccc(OC(=O)N2CCc3c([nH]c4ccc(Cl)cc34)C2c2ccc(OCCCN(C)C)cc2)cc1 (centres unmarked) [Compound 501]	0.04 to 0.2
O=C(Oc1ccc(Cl)cc1)N1CCc2c([nH]c3ccc(Cl)cc23)C1c1ccc(OCCCN2CCCC2)cc1 (centres unmarked) [Compound 429]	< 0.008
CN(C)CCCOc1ccc(C2c3[nH]c4ccc(Cl)cc4c3CCN2C(=O)Oc2ccc(Br)cc2)cc1 (centres unmarked) [Compound 468]	0.008 to 0.04
CN1CCN(CC(O)COc2ccc(C3c4[nH]c5ccc(Cl)cc5c4CCN3C(=O)Oc3ccc(F)cc3)cc2)CC1 (centres unmarked) [Compound 963]	0.008 to 0.04
COCCCNCCCCOc1ccc(C2c3[nH]c4ccc(Cl)cc4c3CCN2C(=O)Oc2ccc(Cl)cc2)cc1 (centres unmarked) [Compound 701]	0.008 to 0.04
O=C(Oc1ccc(Cl)cc1)N1CCc2c([nH]c3ccc(Cl)cc23)C1c1ccc(OCC(O)CN2CCCC2)cc1 (centres unmarked) [Compound 462]	0.008 to 0.04
COCCN(C)CC(O)COc1ccc(C2c3[nH]c4ccc(Cl)cc4c3CCN2C(=O)Oc2ccc(Cl)cc2)cc1 (centres unmarked) [Compound 964]	0.008 to 0.04
CC(=O)N1CCN(CC(O)COc2ccc(C3c4[nH]c5ccc(Cl)cc5c4CCN3C(=O)Oc3ccc(Cl)cc3)cc2)CC1 (centres unmarked) [Compound 415]	< 0.008
O=C(Oc1ccc(F)cc1)N1CCc2c([nH]c3ccc(Cl)cc23)C1c1ccc(OCCCCCCNCCCn2ccnc2)cc1 (centres unmarked) [Compound 779]	0.04 to 0.2
O=C(Oc1ccc(Cl)cc1)N1CCc2c([nH]c3ccc(Cl)cc23)C1c1ccc(OCCCCN2CCCCC2)cc1 (centres unmarked) [Compound 703]	0.008 to 0.04
O=C(Oc1ccc(F)cc1)N1CCc2c([nH]c3ccc(Cl)cc23)C1c1ccc(OCCCCNCCO)cc1 (centres unmarked) [Compound 735]	< 0.008
CN1CCN(CCCCOc2ccc(C3c4[nH]c5ccc(Cl)cc5c4CCN3C(=O)Oc3ccc(Cl)cc3)cc2)CC1 (centres unmarked) [Compound 704]	0.04 to 0.2
O=C(Oc1ccc(Cl)cc1)N1CCc2c([nH]c3ccc(Cl)cc23)C1c1ccc(OCCN2CCOCC2)cc1 (centres unmarked) [Compound 331]	> 1
COCCN(CCOC)CC(O)COc1ccc(C2c3[nH]c4ccc(Cl)cc4c3CCN2C(=O)Oc2ccc(Cl)cc2)cc1 (centres unmarked) [Compound 918]	< 0.008
O=C(Oc1ccc(Cl)cc1)N1CCc2c([nH]c3ccc(Cl)cc23)C1c1ccc(OCCCCNCCO)cc1 (centres unmarked) [Compound 699]	0.008 to 0.04
O=C(Oc1ccc(F)cc1)N1CCc2c([nH]c3ccc(Cl)cc23)C1c1ccc(OCC(O)CN2CCOCC2)cc1 (centres unmarked) [Compound 638]	< 0.008
O=C(Oc1ccc(Cl)cc1)N1CCc2c([nH]c3ccc(Cl)cc23)C1c1ccc(OCCCCCCNCCCn2ccnc2)cc1 (centres unmarked) [Compound 789]	0.04 to 0.2
NCC(O)COc1ccc(C2c3[nH]c4ccc(Cl)cc4c3CCN2C(=O)Oc2ccc(Cl)cc2)cc1 (centres unmarked) [Compound 846]	0.04 to 0.2
